Data: patent US9408854B2, “Methods and systems for pharmacogenomic treatment of cardiovascular conditions” (ROSTAQUO S.P.A., priority 2009, dated 2016)

System: hypertensive patients
Assay: Pharmacogenomic study: change of office systolic blood pressure (DSBP5_0) after 5 weeks of rostafuroxin vs placebo, by genotype
Type: in vivo, human
Conditions: for response (average blood pressure change): individuals carrying all core SNPs; for Delta DSBP5_0: therapy vs placebo
Description: A pharmacogenomic study was performed to ascertain the effect of genetic variations on an individual response to rostafuroxin. The sample for the pharmacogenomic study consisted of 342 individuals that were genotyped with the Human1M array from Illumina using Human1M Duo CHIP genotyping Bead Chip according to procedure described in [Ref. 10, 11, 12]. Among the individuals, 169 were administered the placebo treatment and 173 the active drug (rostafuroxin) in the first period (5 weeks) with demographics as in [Ref 13]. In particular, patients were randomized to one of the following oral doses of rostafuroxin: 0.05, 0.15, 0.5, 1.5, or 5 mg/day for 5 weeks. Each dose had to be compared to a placebo in a crossover design.
For the above sample of individuals a genetic association analysis, was performed to associate the phenotype of the tested individuals with the SNPs detected in the individuals. The selected phenotype of interest was the blood pressure response. The SNPs selected for detection were the 1111170 SNPs on autosomal chromosomes of the individual.
The genetic analysis was performed according to a quantitative genetic association design where the phenotype of interest is a quantitative variable (QT), and the variables (factors) affecting the distribution of the phenotype of interest are SNPs, therapy (placebo, rostafuroxin) and the SNP*therapy interaction.
In particular, the quantitative phenotype selected for the statistical analyses was the difference in mmHg between the office Systolic Blood Pressure (SBP) at the end of first treatment period (SBP_5) and the office Systolic Blood Pressure at baseline after one month of run-in (SBP_0) and is herein also identified as DSBP5_0. The selected QT phenotype and other factors affecting distribution of the phenotype of interest were then analyzed according to the following quantitative trait interaction test Phenotype=SNP+therapy+SNP*therapy as illustrated in further details below.
In particular, in Table 2 the descriptive statistics of DSBP5_0 for the entire sample and for the patients treated with placebo and rostafuroxin are listed. The rather modest basal level of SBP can be explained in view of the recruitment of patients with “mild” hypertension (SBP range 140-179 mmHg), required by the inclusion of a placebo arm.
Those SNPs were further selected to identify the genotypes with the largest response to rostafuroxin compared to placebo by performing a Statistical ANOVA analysis using STATA software in placebo and rostafuroxin with DSBP5_0 as dependent variable and the candidate significant SNPs as independent variables. In particular, to select the genotypes of the interactions between two SNPs with the largest response to rostafuroxin compared to placebo, the Applicants performed an ANOVA statistics in placebo and rostafuroxin with DSBP5_0 as dependent variable and the interaction s between SNPs as independent variables. The Applicants report an example of this procedure in FIG. 5: interaction between rs8899 and rs4678. The Applicants selected the interaction between the genotype AA of rs8899 and the genotype BB of rs4678 because it presents the greatest remarkable decrement in the therapy group and not in the placebo group.
In particular, to select the genotypes with the largest response to rostafuroxin compared to placebo, the Applicants performed an ANOVA statistics (oneway) in placebo and rostafuroxin with DSBP5_0 as dependent variable and the significant SNPs as independent variables.

[1] = GWS SNP rs9361863 (LOC728360) genotype 2
[2] = GWS SNP rs9893372 (ATP2A3) genotype 3
[3] = GWS SNP rs10159569 (SH3PXD2A) genotype 1
[4] = GWS SNP rs10493940 (SLC30A7) genotype 2
[5] = GWS SNP rs10493940 (SLC30A7) genotype 3
[6] = GWS SNP rs12513375 (TTC29) genotype 3
[7] = GWS SNP rs12996186 (ARL5A) genotype 2
[8] = GWS SNP rs16877182 (THSD7A) genotype 2
[9] = GWS SNP rs16893522 (FAM46A) genotype 1
[10] = GWS SNP rs16893522 (FAM46A) genotype 2
[11] = GWS SNP rs17414954 (VCAM1) genotype 2
[12] = individuals carrying the genetic variations
[13] = interaction ADD2 rs4984 CC x TOP rs10502933 CT
[14] = interaction HSD19 rs947130 GG x NEDD4L rs4309483 AA
[15] = interaction HSD19 rs947130 GG x NKAIN3 rs4739037 GA
[16] = interaction LSS2 rs914247 AA x ADD1 rs4961 GT + TT
[17] = interaction LSS2 rs914247 AA x WNK1 rs880054 AG + GG
[18] = interaction LSS2 rs914247 GA + AA x MDR2 rs1045642 CC
[19] = interaction MDR2 rs1045642 TT x AGTR1 rs2131127 CC
[20] = interaction MDR2 rs1045642 TT x HSD18 rs10923835 AT + TT

**Q.** Which DSBP5_0 therapy (GWS SNP rs9361863 (LOC728360) genotype 1) does the source give for `C[C@]12CC[C@H](O)C[C@H]1CC[C@@H]1[C@@H]2CC[C@]2(C)[C@@](O)(c3ccoc3)CC[C@]12O` [rostafuroxin, 17β-(3-furyl)-5β-androstane-3β,14β,17α-triol] here?
**A.** −15 mmHg

**Q.** And the “DELTA delta Therapy placebo” value [1]?
**A.** 8.833 mmHg

**Q.** What about the DSBP5_0 therapy [1] of the same compound?
**A.** −13.48 mmHg

**Q.** And the “DELTA delta Therapy placebo” value [2]?
**A.** 4.434 mmHg

**Q.** And the DSBP5_0 therapy [2]?
**A.** −10.91 mmHg

**Q.** What about the “DELTA delta Therapy placebo” value [3] of the same compound?
**A.** 10.63 mmHg

**Q.** And the DSBP5_0 therapy [3]?
**A.** −13.17 mmHg

**Q.** And the “DELTA delta Therapy placebo” value [4]?
**A.** 5.95 mmHg

**Q.** And the DSBP5_0 therapy [4]?
**A.** −12.13 mmHg

**Q.** What about the “DELTA delta Therapy placebo” value [5] of the same compound?
**A.** 28.95 mmHg

**Q.** What about the DSBP5_0 therapy [5] of the same compound?
**A.** −25 mmHg

**Q.** What about the “DELTA delta Therapy placebo” value [6] of the same compound?
**A.** 15.93 mmHg

**Q.** What about the DSBP5_0 therapy [6] of the same compound?
**A.** −19.18 mmHg

**Q.** What about the “DELTA delta Therapy placebo” value [7] of the same compound?
**A.** 17.96 mmHg

**Q.** And the DSBP5_0 therapy [7]?
**A.** −22.79 mmHg

**Q.** And the “DELTA delta Therapy placebo” value [8]?
**A.** 18.85 mmHg

**Q.** What about the DSBP5_0 therapy [8] of the same compound?
**A.** −21.67 mmHg

**Q.** What about the “DELTA delta Therapy placebo” value [9] of the same compound?
**A.** 27.03 mmHg

**Q.** And the DSBP5_0 therapy [9]?
**A.** −22.43 mmHg

**Q.** And the “DELTA delta Therapy placebo” value [10]?
**A.** 2.874 mmHg

**Q.** What about the DSBP5_0 therapy [10] of the same compound?
**A.** −1.138 mmHg

**Q.** What about the “DELTA delta Therapy placebo” value [11] of the same compound?
**A.** 7.158 mmHg

**Q.** And the DSBP5_0 therapy [11]?
**A.** −13.03 mmHg

**Q.** And the “Mean fall in blood pressure mmHg (DSBP5_0)” value (all never previously treated (NPT) patients on therapy (99 IDs), 5 weeks, no genotype selection)?
**A.** −5.831 mmHg

**Q.** And the “DSBP5_0 therapy” value (carriers rs914247 (LSS2) AA (CAND 1 SNP))?
**A.** −17 mmHg

**Q.** And the “DSBP5_0 therapy” value (carriers rs2345088 TT (Illumina genotype 1), NPT patients, 5 weeks)?
**A.** −30.5 mmHg

**Q.** And the “DSBP5_0 therapy” value (carriers rs2461911 AA (Illumina genotype 1), NPT patients, 5 weeks)?
**A.** −20.6 mmHg

**Q.** And the “DSBP5_0 therapy” value (carriers rs5013093 TT (Illumina genotype 1), NPT patients, 5 weeks)?
**A.** −20.49 mmHg

**Q.** And the “DSBP5_0 therapy” value (carriers rs12513375 TT (Illumina genotype 3), NPT patients, 5 weeks)?
**A.** −19.18 mmHg

**Q.** What about the “DSBP5_0 therapy” value (carriers rs16877182 C/T (Illumina genotype 2), NPT patients, 5 weeks) of the same compound?
**A.** −21.67 mmHg

**Q.** And the “DSBP5_0 therapy” value (carriers rs16893522 AA (Illumina genotype 1), NPT patients, 5 weeks)?
**A.** −22.43 mmHg

**Q.** What about the “response (average blood pressure change)” value (high dosages) of the same compound?
**A.** −15 mmHg

**Q.** What about the “average decrease in systolic blood pressure” value (high doses (1.5; 5.0 mg/day), individuals carrying the genetic variations) of the same compound?
**A.** −12 mmHg

**Q.** What about the “average decrease in nightly blood pressure” value [12] of the same compound?
**A.** ≥ 9 mmHg

**Q.** And the “average decrease in office blood pressure” value [12]?
**A.** at least 15 mmHg

**Q.** And the “DSBP50 ROSTAFUROXIN” value [13]?
**A.** .−19.21 mmHg

**Q.** What about the “Delta Rosta_placebo” value [13] of the same compound?
**A.** 24.73 mmHg

**Q.** What about the “DSBP50 ROSTAFUROXIN” value [14] of the same compound?
**A.** .−17.85 mmHg

**Q.** And the “Delta Rosta_placebo” value [14]?
**A.** 28.15 mmHg

**Q.** And the “DSBP50 ROSTAFUROXIN” value [15]?
**A.** .−18.18 mmHg

**Q.** What about the “Delta Rosta_placebo” value [15] of the same compound?
**A.** 15.72 mmHg

**Q.** And the “DSBP50 ROSTAFUROXIN” value [16]?
**A.** .−22.32 mmHg

**Q.** And the “Delta Rosta_placebo” value [16]?
**A.** 27.49 mmHg

**Q.** And the “DSBP50 ROSTAFUROXIN” value [17]?
**A.** .−16 mmHg

**Q.** And the “Delta Rosta_placebo” value [17]?
**A.** 16.48 mmHg

**Q.** And the “DSBP50 ROSTAFUROXIN” value [18]?
**A.** .−16.91 mmHg

**Q.** What about the “Delta Rosta_placebo” value [18] of the same compound?
**A.** 12.96 mmHg

**Q.** And the “DSBP50 ROSTAFUROXIN” value [19]?
**A.** .−16.9 mmHg

**Q.** And the “Delta Rosta_placebo” value [19]?
**A.** 14.34 mmHg

**Q.** And the “DSBP50 ROSTAFUROXIN” value [20]?
**A.** .−17.40 mmHg

**Q.** And the “Delta Rosta_placebo” value [20]?
**A.** 17.30 mmHg

**Q.** What about the “response (average blood pressure change)” value (low dosages) of the same compound?
**A.** −23 mmHg

**Q.** And the “average decrease in systolic blood pressure” value (lower doses (0.05; 0.15; 0.5 mg/day), individuals carrying the genetic variations)?
**A.** approximately 18 mmHg

**Q.** What about the “Delta DSBP5_0” value (carriers rs2345088 TT (genotype 1)) of the same compound?
**A.** 33.93, mmHg

**Q.** And the “Delta DSBP5_0” value (carriers rs2461911 AA (genotype 1))?
**A.** 22.82, mmHg

**Q.** And the “Delta DSBP5_0” value (carriers rs5013093 TT (genotype 1))?
**A.** 22.09, mmHg

**Q.** And the “Delta DSBP5_0” value (carriers rs12513375 TT (genotype 3))?
**A.** 15.93, mmHg

**Q.** And the “Delta DSBP5_0” value (carriers rs16877182 C/T (genotype 2))?
**A.** 18.85, mmHg

**Q.** And the “Delta DSBP5_0” value (carriers rs16893522 AA (genotype 1))?
**A.** 27.03, mmHg

**Q.** And the “tolerability and quality of life” value (treated individuals, trial results)?
**A.** good tolerability and quality of life
